In US20240150370A1, “BICYCLIC PYRIDINE DERIVATIVE” (Sumitomo Pharma Co., Ltd., priority 0001, published 2024):
Where a name gives a salt, the structure may show the parent alone. Read-outs that look alike come from different tables or passages of the source.

Experiments:
[1] = molecular target: human TAAR1 receptor (Homo sapiens (Human), UniProt Q96RJ0); assay: Evaluation of agonist activity on human TAAR1 receptor (cAMP assay); assay type: cell-based; settings: for activation at 0.1 µM / activation at 1 µM / activation at 10 µM: CHO, 0.5 h, read-out: TAAR1 agonist activity at each concentration (%)
human TAAR1 receptor, sequence (Q96RJ0 whole entry): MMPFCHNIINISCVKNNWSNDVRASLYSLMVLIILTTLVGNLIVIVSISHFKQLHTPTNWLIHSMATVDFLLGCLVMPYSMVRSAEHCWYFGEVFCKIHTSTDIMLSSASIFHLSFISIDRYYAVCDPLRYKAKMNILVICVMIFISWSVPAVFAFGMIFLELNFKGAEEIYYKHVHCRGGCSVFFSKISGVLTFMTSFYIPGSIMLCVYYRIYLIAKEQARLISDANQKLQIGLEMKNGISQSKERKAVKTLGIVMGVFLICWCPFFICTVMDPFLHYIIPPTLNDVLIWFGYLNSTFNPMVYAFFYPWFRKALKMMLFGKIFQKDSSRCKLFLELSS
Procedure: TAAR1 is a G protein-coupled receptor that binds to G proteins (Gas), and activation of the TAAR1 receptor by agonists induces an increase in intracellular cAMP levels. Therefore, the agonist activity of the sample on the human TAAR1 receptor was evaluated using the cAMP assay method.
cAMP Hunter™ CHO-K1 TAAR1 Gs Cell Line, a cell expressing human TAAR1 receptor, was purchased. Human TAAR1-expressing CHO cells were seeded in a 96-well plate, and after culturing for 24 hours, a sample dissolved in DMSO was added and incubated at 37° C. for 30 minutes. A sample for cAMP measurement was prepared according to the cAMPHiRange kit protocol. The amount of cAMP produced by the sample was measured by time-resolved fluorescence using EnVision (excitation wavelength: 330 nm, fluorescence wavelength […]/665 nm).
Sample %=100×{(Csamp)−(Cblank)}/{(Ctyramine)−(Cblank)} • Csamp: count of sample, Ctyramine: count of 100 μM tyramine, Cblank: count of blank

[2] = molecular target: hERG channel (Homo sapiens (Human), UniProt Q12809); assay: Evaluation of hERG channel inhibitory activity (whole-cell patch clamp, hERG-CHO cells); assay type: cell-based; settings: autopatch clamp, read-out: hERG inhibition IC50
hERG channel, sequence (Q12809 whole entry, the tested form may be a part): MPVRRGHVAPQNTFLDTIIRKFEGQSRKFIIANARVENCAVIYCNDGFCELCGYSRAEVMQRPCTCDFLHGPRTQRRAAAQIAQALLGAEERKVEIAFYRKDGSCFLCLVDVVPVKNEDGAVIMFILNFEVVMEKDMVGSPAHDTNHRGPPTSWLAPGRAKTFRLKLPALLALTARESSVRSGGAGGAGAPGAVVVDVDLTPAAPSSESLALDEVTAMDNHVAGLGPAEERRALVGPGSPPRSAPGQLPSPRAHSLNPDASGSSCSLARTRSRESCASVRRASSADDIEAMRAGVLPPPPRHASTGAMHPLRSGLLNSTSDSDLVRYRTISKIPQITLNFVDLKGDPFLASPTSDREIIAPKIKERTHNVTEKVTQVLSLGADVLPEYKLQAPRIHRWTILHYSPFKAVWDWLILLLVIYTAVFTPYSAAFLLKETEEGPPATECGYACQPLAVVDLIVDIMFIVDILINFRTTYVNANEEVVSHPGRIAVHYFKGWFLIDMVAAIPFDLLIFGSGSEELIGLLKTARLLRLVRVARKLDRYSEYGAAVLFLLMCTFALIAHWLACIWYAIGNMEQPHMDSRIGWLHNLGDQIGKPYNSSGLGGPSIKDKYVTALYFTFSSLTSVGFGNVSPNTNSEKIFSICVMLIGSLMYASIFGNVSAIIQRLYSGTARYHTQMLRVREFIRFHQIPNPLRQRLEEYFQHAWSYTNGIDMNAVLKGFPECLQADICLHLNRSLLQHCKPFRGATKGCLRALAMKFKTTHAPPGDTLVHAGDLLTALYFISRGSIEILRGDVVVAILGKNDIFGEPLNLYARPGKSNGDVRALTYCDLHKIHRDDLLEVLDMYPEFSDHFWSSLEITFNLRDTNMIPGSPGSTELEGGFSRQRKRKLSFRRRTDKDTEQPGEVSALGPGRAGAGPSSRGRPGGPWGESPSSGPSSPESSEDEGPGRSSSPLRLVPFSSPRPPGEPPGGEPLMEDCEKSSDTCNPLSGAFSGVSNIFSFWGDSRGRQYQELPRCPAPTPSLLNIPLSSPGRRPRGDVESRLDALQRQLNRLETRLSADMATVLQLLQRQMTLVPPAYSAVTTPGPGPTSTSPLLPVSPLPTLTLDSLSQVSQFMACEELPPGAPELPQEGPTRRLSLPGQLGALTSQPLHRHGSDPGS

[3] = 100 nM, cAMP in human TAAR1-expressing CHO cells, relative to 100 μM tyramine
[4] = 1000 nM, cAMP in human TAAR1-expressing CHO cells, relative to 100 μM tyramine
[5] = 10000 nM, cAMP in human TAAR1-expressing CHO cells, relative to 100 μM tyramine

Row | SMILES | activation at 0.1 µM [1, 3] [%] | activation at 1 µM [1, 4] [%] | activation at 10 µM [1, 5] [%] | IC50 [2] [µM] | other results
1 | Cc1ccc2c(n1)[C@H](CN)C[C@@H](C)O2 [Example 18] | 29 | 73 | 87 | > 100 | –
2 | COc1ccc2c(n1)C(CN)CCC2 (racemic) [Example 88, rac-1-(2-methoxy-5,6,7,8-tetrahydroquinolin-8-yl)methanamine dihydrochloride] | 11 | 38 | 65 | > 100 | –
3 | CNC[C@@H]1C[C@H](C)Oc2cccnc21 [Example 6] | 16 | 57 | 75 | > 100 | –
4 | C[C@H]1Oc2cc(F)cnc2[C@@H]1CN [Example 8, 1-[(2R,3S)-6-fluoro-2-methyl-2,3-dihydrofuro[3,2-b]pyridin-3-yl]methanamine dihydrochloride] | 24 | 63 | 75 | > 100 | –
5 | NC[C@@H]1C[C@@H](c2ccccc2)Oc2cccnc21 (racemic) [Example 25] | 2 | 21 | 63 | 5.8 | –
6 | NC[C@@H]1CSc2cccnc21 (single isomer, unassigned) [Example 42, dihydrochloride] | 25 | 70 | 90 | > 100 | –
7 | Cc1ccc2c(n1)[C@H](CN)[C@@H](C)O2 [Example 35, 1-[(2R,3S)-2,5-dimethyl-2,3-dihydrofuro[3,2-b]pyridin-3-yl]methanamine] | 57 | 82 | 87 | > 100 | –
8 | C[C@H]1Sc2cccnc2[C@@H]1CN (racemic) [Example 15] | 24 | 67 | 90 | > 100 | –
9 | CNCC1c2nc(C)ccc2OC1(C)C (stereo not shown) [Example 79] | 36 | 77 | 90 | > 100 | –
10 | C[C@H]1Oc2cc(Cl)cnc2[C@@H]1CN [Example 37, 1-[(2R,3S)-6-chloro-2-methyl-2,3-dihydrofuro[3,2-b]pyridin-3-yl]methanamine dihydrochloride] | – | 49 | 72 | > 100 | TAAR1 agonist activity at each concentration (%) ([1]; 100 nM, cAMP in human TAAR1-expressing CHO cells, relative to 100 μM tyramine, dihydrochloride): 13%
11 | C[C@H]1Oc2cccnc2[C@@H]1CN [Example 27, 1-[(2R,3S)-2-methyl-2,3-dihydrofuro[3,2-b]pyridin-3-yl]methanamine dihydrochloride] | 40 | 81 | 95 | > 100 | –
12 | NC[C@H]1c2ncccc2OC12CC2 (single isomer, unassigned) [Example 97, rel-1-[(3'S)-3′H-spiro[cyclopropane-1,2′-furo[3,2-b]pyridine]-3′-yl]methanamine dihydrochloride] | 70 | 101 | 96 | > 100 | –
13 | NC[C@H]1C[C@@H](c2ccccc2)Oc2cccnc21 (racemic) [Example 24] | 25 | 71 | 101 | 6.9 | –
14 | [2H][C@@]1(C)Oc2cccnc2[C@H]1CN (stereo in doubt) [Example 94, rel-1-[(2S,3R)-2-methyl(2-^2H)-2,3-dihydrofuro[3,2-b]pyridin-3-yl]methanamine dihydrochloride] | 1 | 4 | 28 | – | –
15 | Cc1ccc2c(n1)[C@@H](CN)C[C@@H](C)O2 [Example 17] | 0 | 4 | 25 | – | –
16 | CC1CCC(CN)c2ncccc21 (stereo not shown) [Example 77] | 0 | 11 | 47 | – | –
17 | C[C@@H]1COc2cccnc2[C@@H]1CN (stereo in doubt) [Example 4, rel-1-[(3S,4S)-3-methyl-3,4-dihydro-2H-pyrano[3,2-b]pyridin-4-yl]methanamine dihydrochloride] | 17 | 55 | 67 | – | –
18 | NC[C@H]1c2ncccc2O[C@@H]1CO (racemic) [Example 26] | 0 | 25 | 73 | – | –
19 | CCNC[C@H]1c2ncccc2O[C@@H]1C [Example 74] | 7 | 46 | 92 | – | –

Row | SMILES | activation at 0.1 µM [1, 3] [%] | activation at 1 µM [1, 4] [%] | activation at 10 µM [1, 5] [%] | IC50 [2] [µM] | other results
20 | C[C@H]1Oc2c(F)ccnc2[C@@H]1CN [Example 59] | 19 | 65 | 84 | – | –
21 | CC[C@@H]1C[C@H](CN)c2ncccc2O1 (racemic) [Example 60] | 7 | 40 | 82 | – | –
22 | Cc1ccc(-c2ccnc3c2CCCC3CN)cc1 (racemic) [Example 89, rac-1-[4-(4-methylphenyl)-5,6,7,8-tetrahydroquinolin-8-yl]methanamine dihydrochloride] | 0 | 23 | 48 | – | –
23 | CNC[C@@H]1C[C@@H](C)Oc2cccnc21 (racemic) [Example 7] | 17 | 56 | 75 | – | –
24 | CC1(C)COc2cccnc2C1CN (stereo not shown) [Example 53] | – | – | – | – | activation at 0.1 µM [1]: 0%; activation at 1 µM [1]: 3%; activation at 10 µM [1]: 18%
25 | Cc1ccc2c(n1)[C@@H](CN)C(C)(C)O2 (single isomer, unassigned) [Example 104, dihydrochloride] | 0 | 5 | 31 | – | –
26 | C[C@@H]1[C@H](CN)c2ncccc2O[C@@H]1C (racemic) [Example 62, rac-1-[(2R,3R,4R)-2,3-dimethyl-3,4-dihydro-2H-pyrano[3,2-b]pyridin-4-yl]methanamine dihydrochloride] | 2 | 20 | 66 | – | –
27 | C[C@@H]1C[C@H](CN)c2ncc(F)cc2O1 [Example 52] | 1 | 8 | 48 | – | –
28 | NC[C@@H]1c2ncc(Cl)cc2OC12CC2 (single isomer, unassigned) [Example 98, rel-1-[(3′R)-6′-chloro-3′H-spiro[cyclopropane-1,2′-furo[3,2-b]pyridine]-3′-yl]methanamine dihydrochloride] | 1 | 9 | 37 | – | –
29 | C[C@H]1Oc2cc(Cl)cnc2[C@@H]1CN (racemic) [Example 85] | – | – | – | – | TAAR1 agonist activity at each concentration (%) [1, 3]: 6%; TAAR1 agonist activity at each concentration (%) [1, 4]: 37%; TAAR1 agonist activity at each concentration (%) [1, 5]: 70%
30 | COC[C@H]1Oc2cccnc2[C@@H]1CN (racemic) [Example 32] | 1 | 4 | 22 | – | –
31 | C[C@H]1[C@H](CN)c2ncccc2O[C@@H]1C (racemic) [Example 63] | 3 | 22 | 62 | – | –
32 | C[C@@H]1C[C@@H](CN)c2ncc(F)cc2O1 [Example 66] | 21 | 66 | 82 | – | –
33 | Cc1ccc2c(n1)[C@H](CN)C1(CC1)O2 (single isomer, unassigned) [Example 101, rel-1-[(3'S)-5′-methyl-3′H-spiro[cyclopropane-1,2′-furo[3,2-b]pyridine]-3′-yl]methanamine dihydrochloride] | 62 | 79 | 84 | – | –
34 | C=CCNC[C@H]1c2ncccc2O[C@@H]1C [Example 71] | 0 | 6 | 29 | – | –
35 | COCCNC[C@H]1c2ncccc2O[C@@H]1C [Example 73] | 0 | 9 | 40 | – | –
36 | NC[C@H]1c2ncc(Cl)cc2OC12CC2 (single isomer, unassigned) [Example 99, rel-1-[(3'S)-6′-chloro-3′H-spiro[cyclopropane-1,2′-furo[3,2-b]pyridine]-3′-yl]methanamine dihydrochloride] | 9 | 39 | 62 | – | –
37 | NCC1CCc2c(Cl)ccnc21 (stereo not shown) [Example 75] | 0 | 26 | 75 | – | –
